Assays:
Type in all cases: in vivo
[1] = system: Italian ryegrass (Lolium multiflorum); experiment: Test A preemergence, directed soil spray; conditions: approx. 10 days
Text: (§1) Seeds of plant species selected from barnyardgrass (Echinochloa crus-galli), kochia (Kochia scoparia), ragweed (common ragweed, Ambrosia elatior), Italian ryegrass (Lolium multiflorum), giant foxtail (Setaria faberii), and pigweed (Amaranthus retroflexus) were planted into a blend of loam soil and sand and treated preemergence with a directed soil spray using test chemicals formulated in a non-phytotoxic solvent mixture which included a surfactant. At the same time, plants selected from these weed species and also wheat (Triticum aestivum), corn (Zea mays), blackgrass (Alopecurus myosuroides), and galium (catchweed bedstraw, Galium aparine) were planted in pots containing the same blend of loam soil and sand and treated with postemergence applications of test chemicals formulated in the same manner. Plants ranged in height from 2 to 10 cm and were in the one- to two-leaf stage for the postemergence treatment. Treated plants and untreated controls were maintained in a greenhouse for approximately 10 days, after which time all treated plants were compared to untreated controls and visually evaluated for injury. Plant response ratings, summarized in Table A, are based on a 0 to 100 scale where 0 is no effect and 100 is complete control. A dash (-) response means no test result.

[2] = system: barnyardgrass (Echinochloa crus-galli); experiment: Test A preemergence, directed soil spray; conditions: approx. 10 days
Text: as §1

[3] = system: giant foxtail (Setaria faberii); experiment: Test A preemergence, directed soil spray; conditions: approx. 10 days
Text: as §1

kochia (Kochia scoparia) [4] = experiment: Test A preemergence, directed soil spray; conditions: approx. 10 days
Text: as §1

[5] = system: pigweed (Amaranthus retroflexus); experiment: Test A preemergence, directed soil spray; conditions: approx. 10 days
Text: as §1

[6] = system: ragweed (common ragweed, Ambrosia elatior); experiment: Test A preemergence, directed soil spray; conditions: approx. 10 days
Text: as §1

[7] = system: Italian ryegrass (Lolium multiflorum); experiment: Test C postemergence; conditions: scale 0 to 100, 0 is no effect, 100 is complete control
Text: (§2) Seeds of plant species selected from blackgrass (Alopecurus myosuroides), Italian ryegrass (Lolium multiflorum), winter wheat (Triticum aestivum), galium (catchweed bedstraw, Galium aparine), corn (Zea mays), large (Lg) crabgrass (Digitaria sanguinalis), giant foxtail (Setaria faberii), johnsongrass (Sorghum halepense), lambsquarters (Chenopodium album), morningglory (Ipomoea coccinea), yellow nutsedge (Cyperus esculentus), pigweed (Amaranthus retroflexus), ragweed (common ragweed, Ambrosia elatior), soybean (Glycine max), barnyardgrass (Echinochloa crus-galli), oilseed rape (Brassica napus), waterhemp (common waterhemp, Amaranthus rudis), and velvetleaf (Abutilon theophrasti) were planted into a blend of loam soil and sand and treated preemergence with test chemicals formulated in a non-phytotoxic solvent mixture which included a surfactant. At the same time, plants selected from these crop and weed species and also chickweed (common chickweed, Stellaria media), kochia (Kochia scoparia), and wild oat (Avena fatua), were planted in pots containing Sunshine Redi-Earth® planting medium comprising spaghnum peat moss, vermiculite, starter nutrients and dolomitic limestone and treated with postemergence applications of test chemicals formulated in the same manner. Plants ranged in height from 2 to 18 cm (1- to 4-leaf stage) for postemergence treatments. Treated plants and controls were maintained in a greenhouse for 13 to 15 days, after which time all species were compared to controls and visually evaluated. Plant response ratings, summarized in Table C, are based on a scale of 0 to 100 where 0 is no effect and 100 is complete control. A dash (-) response means no test result.

[8] = system: barnyardgrass (Echinochloa crus-galli); experiment: Test C postemergence; conditions: scale 0 to 100, 0 is no effect, 100 is complete control
Text: as §2

[9] = system: blackgrass (Alopecurus myosuroides); experiment: Test C postemergence; conditions: scale 0 to 100, 0 is no effect, 100 is complete control
Text: as §2

[10] = system: chickweed (common chickweed, Stellaria media); experiment: Test C postemergence; conditions: scale 0 to 100, 0 is no effect, 100 is complete control
Text: as §2

corn (Zea mays) = experiment: Test C postemergence; conditions: scale 0 to 100, 0 is no effect, 100 is complete control
Text: as §2

[11] = system: giant foxtail (Setaria faberii); experiment: Test C postemergence; conditions: scale 0 to 100, 0 is no effect, 100 is complete control
Text: as §2

kochia (Kochia scoparia) [12] = experiment: Test C postemergence; conditions: scale 0 to 100, 0 is no effect, 100 is complete control
Text: as §2

[13] = system: morningglory (Ipomoea coccinea); experiment: Test C postemergence; conditions: scale 0 to 100, 0 is no effect, 100 is complete control
Text: as §2

[14] = system: oilseed rape (Brassica napus); experiment: Test C postemergence; conditions: scale 0 to 100, 0 is no effect, 100 is complete control
Text: as §2

[15] = system: pigweed (Amaranthus retroflexus); experiment: Test C postemergence; conditions: scale 0 to 100, 0 is no effect, 100 is complete control
Text: as §2

[16] = system: velvetleaf (Abutilon theophrasti); experiment: Test C postemergence; conditions: scale 0 to 100, 0 is no effect, 100 is complete control
Text: as §2

[17] = system: waterhemp (common waterhemp, Amaranthus rudis); experiment: Test C postemergence; conditions: scale 0 to 100, 0 is no effect, 100 is complete control
Text: as §2

wild oat (Avena fatua) = experiment: Test C postemergence; conditions: scale 0 to 100, 0 is no effect, 100 is complete control
Text: as §2

[18] = system: winter wheat (Triticum aestivum); experiment: Test C postemergence; conditions: scale 0 to 100, 0 is no effect, 100 is complete control
Text: as §2

[19] = system: yellow nutsedge (Cyperus esculentus); experiment: Test C postemergence; conditions: scale 0 to 100, 0 is no effect, 100 is complete control
Text: as §2

O=c1cccc(Oc2ncc(Cl)cn2)n1-c1ccc(Cl)cc1 [Compound 1, 1-(4-chlorophenyl)-6-[(5-chloro-2-pyrimidinyl)oxy]-2(1H)-pyridinone]
Plant response rating (0 to 100 scale, 0 no effect, 100 complete control), Ryegrass, Italian ([1]; 125 g ai/ha): 0 | Plant response rating (0 to 100 scale, 0 no effect, 100 complete control), Ryegrass, Italian ([1]; 500 g ai/ha): 20 | Plant response rating (0 to 100 scale, 0 no effect, 100 complete control), Barnyardgrass ([2]; 125 g ai/ha): 30 | Plant response rating (0 to 100 scale, 0 no effect, 100 complete control), Barnyardgrass ([2]; 500 g ai/ha): 100 | Plant response rating (0 to 100 scale, 0 no effect, 100 complete control), Foxtail, Giant ([3]; 125 g ai/ha): 90 | Plant response rating (0 to 100 scale, 0 no effect, 100 complete control), Foxtail, Giant ([3]; 500 g ai/ha): 100 | Plant response rating (0 to 100 scale, 0 no effect, 100 complete control), Kochia (kochia (Kochia scoparia) [4]; 125 g ai/ha): 40 | Plant response rating (0 to 100 scale, 0 no effect, 100 complete control), Kochia (kochia (Kochia scoparia) [4]; 500 g ai/ha): 100 | Plant response rating (0 to 100 scale, 0 no effect, 100 complete control), Pigweed ([5]; 125 g ai/ha): 40 | Plant response rating (0 to 100 scale, 0 no effect, 100 complete control), Pigweed ([5]; 500 g ai/ha): 100 | Plant response rating (0 to 100 scale, 0 no effect, 100 complete control), Ragweed ([6]; 125 g ai/ha): 0 | Plant response rating (0 to 100 scale, 0 no effect, 100 complete control), Ragweed ([6]; 500 g ai/ha): 20 | Plant response rating, Ryegrass, Italian ([7]; 16 g ai/ha): 5 | Plant response rating, Ryegrass, Italian ([7]; 31 g ai/ha): 5 | Plant response rating, Ryegrass, Italian ([7]; 62 g ai/ha): 5 | Plant response rating, Ryegrass, Italian ([7]; 125 g ai/ha): 10 | Plant response rating, Barnyardgrass ([8]; 16 g ai/ha): 5 | Plant response rating, Barnyardgrass ([8]; 31 g ai/ha): 5 | Plant response rating, Barnyardgrass ([8]; 62 g ai/ha): 10 | Plant response rating, Barnyardgrass ([8]; 125 g ai/ha): 10 | Plant response rating, Blackgrass ([9]; 16 g ai/ha): 5 | Plant response rating, Blackgrass ([9]; 31 g ai/ha): 5 | Plant response rating, Blackgrass ([9]; 62 g ai/ha): 5 | Plant response rating, Blackgrass ([9]; 125 g ai/ha): 5 | Plant response rating, Chickweed ([10]; 16 g ai/ha): 10 | Plant response rating, Chickweed ([10]; 31 g ai/ha): 10 | Plant response rating, Chickweed ([10]; 62 g ai/ha): 50 | Plant response rating, Chickweed ([10]; 125 g ai/ha): 65 | Plant response rating, Corn (corn (Zea mays); 16 g ai/ha): 5 | Plant response rating, Corn (corn (Zea mays); 31 g ai/ha): 5 | Plant response rating, Corn (corn (Zea mays); 62 g ai/ha): 10 | Plant response rating, Corn (corn (Zea mays); 125 g ai/ha): 10 | Plant response rating, Foxtail, Giant ([11]; 16 g ai/ha): 5 | Plant response rating, Foxtail, Giant ([11]; 31 g ai/ha): 10 | Plant response rating, Foxtail, Giant ([11]; 62 g ai/ha): 10 | Plant response rating, Foxtail, Giant ([11]; 125 g ai/ha): 10 | Plant response rating, Kochia (kochia (Kochia scoparia) [12]; 16 g ai/ha): 90 | Plant response rating, Kochia (kochia (Kochia scoparia) [12]; 31 g ai/ha): 90 | Plant response rating, Kochia (kochia (Kochia scoparia) [12]; 62 g ai/ha): 95 | Plant response rating, Kochia (kochia (Kochia scoparia) [12]; 125 g ai/ha): 95 | Plant response rating, Morningglory ([13]; 16 g ai/ha): 10 | Plant response rating, Morningglory ([13]; 31 g ai/ha): 40 | Plant response rating, Morningglory ([13]; 62 g ai/ha): 40 | Plant response rating, Morningglory ([13]; 125 g ai/ha): 60 | Plant response rating, Oilseed Rape ([14]; 16 g ai/ha): 10 | Plant response rating, Oilseed Rape ([14]; 31 g ai/ha): 30 | Plant response rating, Oilseed Rape ([14]; 62 g ai/ha): 70 | Plant response rating, Oilseed Rape ([14]; 125 g ai/ha): 80 | Plant response rating, Pigweed ([15]; 16 g ai/ha): 35 | Plant response rating, Pigweed ([15]; 31 g ai/ha): 95 | Plant response rating, Pigweed ([15]; 62 g ai/ha): 60 | Plant response rating, Pigweed ([15]; 125 g ai/ha): 80 | Plant response rating, Velvetleaf ([16]; 16 g ai/ha): 10 | Plant response rating, Velvetleaf ([16]; 31 g ai/ha): 10 | Plant response rating, Velvetleaf ([16]; 62 g ai/ha): 20 | Plant response rating, Velvetleaf ([16]; 125 g ai/ha): 25 | Plant response rating, Waterhemp ([17]; 16 g ai/ha): 25 | Plant response rating, Waterhemp ([17]; 31 g ai/ha): 80 | Plant response rating, Waterhemp ([17]; 62 g ai/ha): 70 | Plant response rating, Waterhemp ([17]; 125 g ai/ha): 90 | Plant response rating, Oat, Wild (wild oat (Avena fatua); 16 g ai/ha): 5 | Plant response rating, Oat, Wild (wild oat (Avena fatua); 31 g ai/ha): 5 | Plant response rating, Oat, Wild (wild oat (Avena fatua); 62 g ai/ha): 5 | Plant response rating, Oat, Wild (wild oat (Avena fatua); 125 g ai/ha): 10 | Plant response rating, Wheat ([18]; 16 g ai/ha): 0 | Plant response rating, Wheat ([18]; 31 g ai/ha): 5 | Plant response rating, Wheat ([18]; 62 g ai/ha): 5 | Plant response rating, Wheat ([18]; 125 g ai/ha): 10 | Plant response rating, Nutsedge, Yellow ([19]; 16 g ai/ha): 5 | Plant response rating, Nutsedge, Yellow ([19]; 31 g ai/ha): 5 | Plant response rating, Nutsedge, Yellow ([19]; 62 g ai/ha): 5 | Plant response rating, Nutsedge, Yellow ([19]; 125 g ai/ha): 10

Reference: US9963442B2, “Pyridones as herbicides” (E I DU PONT DE NEMOURS AND COMPANY, priority 2014, dated 2018)
